According to patent US12503426B2, “Synthetic derivatives of oleoyl-lysophosphatidylinositol (oleoyl-LPI) and uses thereof” (LIPOVEXA SRL, priority 2017, dated 2025):

Experiments:
Glutag cells = assay: GLP-1 secretion by Glutag cells; format: cell-based, murine; settings: 2 hours
How it was run: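 Murine GLUTag and human NCI-H716 L-cells were incubated 2 h in FBS-free DMEM with LPI species, OEA or LPC, with optional 1 h pretreatment with PD98059 (50 μM) or H89 (10 μM). Total medium GLP-1 was measured by ELISA and normalised to basal control secretion.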

[1] = system: primary culture of mixed colonic preparations; assay: GLP-1 secretion by mixed primary colonic culture; format: cell-based, mice
Source text: Mice were euthanized, and 5 cm of colon were used for isolation of epithelial cells following as previously described by Reimann, F., Habib, A. M., Tolhurst, G., Parker, H. E., Rogers, G. J., & Gribble, F. M. (2008), Cell Metabolism, Vol 8(6), pp 532-539, the disclosure of which is incorporated herein by reference in its entirety. Briefly, colon segments were dissected from 10 week-old C57BL/6 male mice. Segments were cut open longitudinally and washed quickly in DMEM (serum-free) to remove luminal contents. Colon was chopped into about 1-2 mm pieces and digested with about 0.5 mg/ml collagenase-P for 15 min. Resulting cell suspensions were filtered through 70 μm nylon cell strainers (BD Falcon, UK), centrifuged at 300 g for 5 min, and pellets re-suspended in DMEM supplemented with 10% FBS. The purified cells were collected and cultured on 24-well Matrigel-coated plates at 37° C. in DMEM (25 mM glucose), 10% FBS, 2 mM L-glutamine, 1% penicillin/streptomycin. On the day of GLP-1 assay, cells were washed twice with PBS, and then treated with LPI or vehicle Methanol: Chloroform, (M:C), v/v for 2 h at 37° C. Supernatants were collected for GLP-1 quantification using the active GLP-1 ELISA kit from Millipore. […]

ERK = ERK phosphorylation by Western blot, Glutag cells; format: cell-based, murine; settings: time course over 2 hours
Experimental: When cell cultures reached 80-90%, media were removed and cells were washed twice with 1×PBS. The cells were lysed in 150 μl (for one well of a 6 well plate) of Triton X-100 lysis buffer, containing phosphatase inhibitor cocktail (1:1000) (Sigma Aldrich, UK) and protease inhibitor (1:1000, Sigma Aldrich, UK). Cells were detached with scrapers and lysate were collected and centrifuged at 10,000 rpm, 4° C. for 5 minutes. The supernatant was then transferred to a 1.5 ml microcentrifuge tube and used for protein quantification. Cell lysates were stored at −20° C. for longer storage. All lysates were prepared on ice.
Non-specific antibody binding was prevented by incubating the nitrocellulose membrane in 5% milk in PBS-0.05% Tween-20 (v/v) for 30 minutes on a rotating plate. The membrane was then washed in PBS-0.05% Tween-20 (v/v) and then incubated with the primary antibody diluted in PBS-0.05% Tween-20 (v/v) on a rotating plate overnight at 4° C. After 24 hours, the membrane was washed 5× for 5 minutes with PBS-0.05% Tween-20 (v/v), and then incubated on a rotating plate with the appropriate secondary antibody for 1 hour at room temperature. […]

## oleoyl-lysophosphatidylinositol [oleoyl-LPI]
Glutag cells; Glutag cells, normalised as percentage of cells treated with vehicle (control)
  GLP-1 secretion: 126±5%
Glutag cells; siGPR55 transfected Glutag cells, oleoyl-LPI 20 μM
  effect of down-regulation of GPR55 on GLP-1 secretion: no effect on GLP-1 secretion
Glutag cells; siGPR119 transfected Glutag cells, oleoyl-LPI 20 μM
  GLP-1 secretion in siGPR119-transfected cells: significantly reduced the GLP-1 secretion to the basal level
[1]; GPR119−/− mice compared to wild type control
  GLP-1 release: unable to induce GLP-1 release
[1]; wild type mice, two hours treatment
  GLP-1 levels, from the basal secretion: 131±32%
ERK
  p-ERK, time course: increased p-ERK within 10 min and sustained a high level for 120 min
